Common to all, as to experiment: biochemical
What all share (design): KINOMEscan competition binding, DNA-tagged kinase against immobilised ligand, qPCR read-out
Holding throughout (settings): read-out: Percent Control

In assay [1] the target is RIPK1 (Homo sapiens, UniProt Q13546).
Assay [2] deals with T1, RSK1(Kin.Dom.1-N-terminal) (Homo sapiens, UniProt Q15418).
T1 construct: gene RPS6KA1; Kin.Dom.1 N-terminal

The target of assay [3] is FES (Homo sapiens, UniProt P07332).
Assay [4] has as its target MAP2K5 (Homo sapiens, UniProt Q13163).
In assay [5] the target is IKBKB (Homo sapiens, UniProt O14920).
Assay [6] concerns the target STK36 (Homo sapiens, UniProt Q9NRP7).
Assay [7] has as its target CDC42BPG (Homo sapiens, UniProt Q6DT37).
The target in assay [8] is MAP4K4 (Homo sapiens, UniProt O95819).
For assay [9], the target named is DAPK2 (Homo sapiens, UniProt Q9UIK4).
Chain of DAPK2 (Q9UIK4 whole entry): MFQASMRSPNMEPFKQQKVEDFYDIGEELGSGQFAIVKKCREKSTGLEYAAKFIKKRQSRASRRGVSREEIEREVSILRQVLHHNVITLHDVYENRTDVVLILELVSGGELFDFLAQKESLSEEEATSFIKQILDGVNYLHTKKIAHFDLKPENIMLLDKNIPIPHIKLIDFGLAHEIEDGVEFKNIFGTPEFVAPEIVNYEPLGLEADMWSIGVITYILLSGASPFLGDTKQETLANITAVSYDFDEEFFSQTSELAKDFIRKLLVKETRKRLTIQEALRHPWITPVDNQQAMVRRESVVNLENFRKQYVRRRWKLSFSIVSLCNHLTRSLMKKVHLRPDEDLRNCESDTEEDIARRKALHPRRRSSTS
Assay [10] deals with MST1R (Homo sapiens, UniProt Q04912).
The target of assay [11] is T2, RPS6KA5(Kin.Dom.1-N-terminal) (Homo sapiens, UniProt O75582).
T2 construct: Kin.Dom.1 N-terminal

In assay [12] the target is MAPK4 (Homo sapiens, UniProt P31152).
In assay [13] the target is ERN1 (Homo sapiens, UniProt O75460).
The target in assay [14] is NEK1 (Homo sapiens, UniProt Q96PY6).
Assay [15] concerns the target NEK6 (Homo sapiens, UniProt Q9HC98).
Assay [16] concerns the target SLK (Homo sapiens, UniProt Q9H2G2).
Assay [17] addresses FLT4 (Homo sapiens, UniProt P35916).
Assay [18] deals with NEK10 (Homo sapiens, UniProt Q6ZWH5).
Chain of NEK10 (Q6ZWH5 whole entry): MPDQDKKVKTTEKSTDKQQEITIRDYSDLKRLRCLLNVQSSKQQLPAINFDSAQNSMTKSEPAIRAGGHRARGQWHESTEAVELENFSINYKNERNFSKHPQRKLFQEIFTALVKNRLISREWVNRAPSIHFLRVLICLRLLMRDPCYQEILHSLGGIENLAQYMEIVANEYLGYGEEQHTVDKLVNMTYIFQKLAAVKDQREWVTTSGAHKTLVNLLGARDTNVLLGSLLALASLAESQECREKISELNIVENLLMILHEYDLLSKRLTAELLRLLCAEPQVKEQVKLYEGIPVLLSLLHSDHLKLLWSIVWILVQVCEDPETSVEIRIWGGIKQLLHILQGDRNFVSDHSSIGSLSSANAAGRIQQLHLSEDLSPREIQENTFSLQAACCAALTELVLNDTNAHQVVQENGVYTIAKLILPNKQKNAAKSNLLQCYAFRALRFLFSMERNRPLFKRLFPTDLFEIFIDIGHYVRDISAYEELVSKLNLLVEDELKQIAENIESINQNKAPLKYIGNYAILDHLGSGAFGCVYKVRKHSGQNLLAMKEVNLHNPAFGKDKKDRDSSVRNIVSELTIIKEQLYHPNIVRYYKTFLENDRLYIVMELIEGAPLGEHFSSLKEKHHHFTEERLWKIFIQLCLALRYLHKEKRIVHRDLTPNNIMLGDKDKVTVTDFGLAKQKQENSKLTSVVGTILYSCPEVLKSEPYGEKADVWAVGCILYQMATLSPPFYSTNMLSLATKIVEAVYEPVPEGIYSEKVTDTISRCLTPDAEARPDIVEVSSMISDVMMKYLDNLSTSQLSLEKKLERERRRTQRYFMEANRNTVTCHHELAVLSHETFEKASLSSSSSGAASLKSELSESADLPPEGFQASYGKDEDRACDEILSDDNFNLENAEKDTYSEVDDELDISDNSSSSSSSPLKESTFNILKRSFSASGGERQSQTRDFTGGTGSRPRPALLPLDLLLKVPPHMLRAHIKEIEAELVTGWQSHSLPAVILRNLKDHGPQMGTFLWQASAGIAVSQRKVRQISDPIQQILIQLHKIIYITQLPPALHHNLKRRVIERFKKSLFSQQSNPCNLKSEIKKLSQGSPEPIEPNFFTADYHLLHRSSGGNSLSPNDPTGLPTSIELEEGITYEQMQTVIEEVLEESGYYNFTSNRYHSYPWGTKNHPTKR
Assay [19] has as its target RIOK1 (Homo sapiens, UniProt Q9BRS2).
The target of assay [20] is FGFR2 (Homo sapiens, UniProt P21802).

Chain of CDC42BPG (Q6DT37 whole entry): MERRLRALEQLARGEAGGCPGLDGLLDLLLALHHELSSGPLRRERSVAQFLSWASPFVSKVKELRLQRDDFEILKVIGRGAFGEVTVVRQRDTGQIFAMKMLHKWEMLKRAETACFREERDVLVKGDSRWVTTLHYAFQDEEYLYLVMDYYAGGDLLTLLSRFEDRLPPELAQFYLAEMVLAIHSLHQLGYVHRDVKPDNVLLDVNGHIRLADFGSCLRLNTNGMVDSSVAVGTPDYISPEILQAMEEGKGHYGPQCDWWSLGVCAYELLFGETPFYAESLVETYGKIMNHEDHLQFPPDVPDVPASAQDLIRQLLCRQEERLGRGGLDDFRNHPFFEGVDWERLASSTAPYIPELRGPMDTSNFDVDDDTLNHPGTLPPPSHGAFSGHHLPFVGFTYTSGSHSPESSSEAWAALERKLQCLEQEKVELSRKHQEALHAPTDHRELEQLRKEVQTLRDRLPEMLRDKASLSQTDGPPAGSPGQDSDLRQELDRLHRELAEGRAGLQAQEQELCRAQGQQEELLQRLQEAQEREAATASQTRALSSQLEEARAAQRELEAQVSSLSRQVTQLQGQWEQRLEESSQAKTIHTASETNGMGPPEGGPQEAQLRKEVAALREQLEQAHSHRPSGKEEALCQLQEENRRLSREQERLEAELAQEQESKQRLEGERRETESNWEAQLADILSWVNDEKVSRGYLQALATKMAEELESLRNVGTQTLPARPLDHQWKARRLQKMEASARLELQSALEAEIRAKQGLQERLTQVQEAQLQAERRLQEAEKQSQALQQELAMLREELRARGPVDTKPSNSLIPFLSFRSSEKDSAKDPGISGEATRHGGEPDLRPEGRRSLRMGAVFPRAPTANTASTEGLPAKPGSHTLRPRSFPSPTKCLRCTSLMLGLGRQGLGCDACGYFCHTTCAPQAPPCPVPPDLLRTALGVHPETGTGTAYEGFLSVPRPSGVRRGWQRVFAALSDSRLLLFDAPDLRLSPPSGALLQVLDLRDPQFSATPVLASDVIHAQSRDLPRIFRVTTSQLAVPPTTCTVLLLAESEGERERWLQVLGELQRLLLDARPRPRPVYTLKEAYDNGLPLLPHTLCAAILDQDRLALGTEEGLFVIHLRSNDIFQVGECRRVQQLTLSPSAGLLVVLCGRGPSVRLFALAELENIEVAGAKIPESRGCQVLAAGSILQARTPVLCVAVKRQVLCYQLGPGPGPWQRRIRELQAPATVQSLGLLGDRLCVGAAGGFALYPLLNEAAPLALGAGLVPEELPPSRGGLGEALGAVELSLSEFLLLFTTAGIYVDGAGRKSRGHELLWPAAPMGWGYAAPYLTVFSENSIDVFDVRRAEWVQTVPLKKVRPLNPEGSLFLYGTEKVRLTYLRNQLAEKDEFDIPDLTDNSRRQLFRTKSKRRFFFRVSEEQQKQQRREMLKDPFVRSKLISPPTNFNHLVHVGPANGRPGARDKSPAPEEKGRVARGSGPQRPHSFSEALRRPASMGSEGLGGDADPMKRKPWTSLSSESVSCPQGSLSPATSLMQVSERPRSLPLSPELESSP
Chain of RIPK1 (Q13546 whole entry): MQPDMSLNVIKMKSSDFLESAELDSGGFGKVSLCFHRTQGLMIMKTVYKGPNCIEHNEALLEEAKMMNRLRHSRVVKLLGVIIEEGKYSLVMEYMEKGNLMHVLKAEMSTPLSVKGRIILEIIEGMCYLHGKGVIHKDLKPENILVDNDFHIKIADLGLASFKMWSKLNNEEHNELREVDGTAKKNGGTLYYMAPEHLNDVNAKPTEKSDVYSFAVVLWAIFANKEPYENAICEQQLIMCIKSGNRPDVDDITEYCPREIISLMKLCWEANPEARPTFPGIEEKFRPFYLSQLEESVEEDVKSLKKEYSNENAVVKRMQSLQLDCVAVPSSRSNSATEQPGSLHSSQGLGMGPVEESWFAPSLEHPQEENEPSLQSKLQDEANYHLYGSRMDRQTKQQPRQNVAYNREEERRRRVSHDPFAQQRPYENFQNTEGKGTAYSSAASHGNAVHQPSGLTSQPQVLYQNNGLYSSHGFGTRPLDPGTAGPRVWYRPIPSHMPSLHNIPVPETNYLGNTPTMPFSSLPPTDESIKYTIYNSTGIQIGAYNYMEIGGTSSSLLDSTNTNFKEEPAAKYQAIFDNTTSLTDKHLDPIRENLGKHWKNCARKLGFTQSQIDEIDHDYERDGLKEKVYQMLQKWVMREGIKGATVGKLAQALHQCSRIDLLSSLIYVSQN
Chain of MAP2K5 (Q13163 whole entry): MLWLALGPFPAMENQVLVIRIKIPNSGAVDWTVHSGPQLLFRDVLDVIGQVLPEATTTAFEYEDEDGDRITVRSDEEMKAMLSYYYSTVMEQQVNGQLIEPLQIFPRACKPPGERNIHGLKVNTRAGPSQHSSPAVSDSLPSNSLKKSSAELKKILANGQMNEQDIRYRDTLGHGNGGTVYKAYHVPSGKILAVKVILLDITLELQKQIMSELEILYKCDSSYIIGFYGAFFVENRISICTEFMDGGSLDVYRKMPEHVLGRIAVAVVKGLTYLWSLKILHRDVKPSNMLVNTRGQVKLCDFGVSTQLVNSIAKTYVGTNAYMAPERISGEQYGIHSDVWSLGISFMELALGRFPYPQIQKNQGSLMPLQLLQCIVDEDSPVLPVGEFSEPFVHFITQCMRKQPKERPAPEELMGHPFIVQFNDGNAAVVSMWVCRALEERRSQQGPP
T1 sequence (Q15418 whole entry): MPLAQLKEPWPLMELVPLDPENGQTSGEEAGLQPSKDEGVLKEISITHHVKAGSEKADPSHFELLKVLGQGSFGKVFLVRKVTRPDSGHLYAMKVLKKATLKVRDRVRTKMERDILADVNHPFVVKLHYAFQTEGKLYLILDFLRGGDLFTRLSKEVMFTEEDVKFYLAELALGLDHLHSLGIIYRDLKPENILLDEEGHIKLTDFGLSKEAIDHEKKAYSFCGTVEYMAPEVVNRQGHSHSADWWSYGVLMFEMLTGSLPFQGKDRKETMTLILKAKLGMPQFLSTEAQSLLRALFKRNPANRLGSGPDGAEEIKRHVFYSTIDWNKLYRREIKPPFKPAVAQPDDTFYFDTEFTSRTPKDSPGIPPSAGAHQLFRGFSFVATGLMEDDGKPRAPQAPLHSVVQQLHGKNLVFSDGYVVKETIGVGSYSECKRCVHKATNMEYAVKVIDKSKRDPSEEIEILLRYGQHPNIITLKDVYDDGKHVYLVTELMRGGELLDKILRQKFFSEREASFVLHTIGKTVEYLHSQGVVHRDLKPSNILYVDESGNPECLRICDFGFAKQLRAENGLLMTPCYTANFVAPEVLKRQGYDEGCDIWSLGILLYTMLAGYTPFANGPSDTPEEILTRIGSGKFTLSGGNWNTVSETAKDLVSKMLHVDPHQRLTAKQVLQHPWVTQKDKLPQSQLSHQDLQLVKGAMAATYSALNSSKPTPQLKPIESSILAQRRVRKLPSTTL

`Oc1ccc(C2=Cc3ccc(O)cc3OC2)cc1` [compound 1, idronoxil]: the remaining binding at 10 µM is 78% in assay [1]; 71% in assay [2]; 95% in [3]; 62% in assay [4]; 73% in assay [5]; 78% in [6]. For the same molecule, the remaining binding at 10 µM stood at 93% in assay [7]; 47% in [8]; 56% in [9]; 100% in assay [10]; 100% in [11]; 100% in [12]. Further, the remaining binding at 10 µM in assay [13] was 66%; in [14] it was 71%; in assay [15] it was 100%; in [16], 73%; in [17] it was 100%; in [18], 69%. The remaining binding at 10 µM in [19] amounted to 98%; in assay [20], 80%.

The values above are taken from PMC10507085, “Pharmacological inhibition of TBK1/IKKε blunts immunopathology in a murine model of SARS-CoV-2 infection” (Nature Communications, 2023).
